≈ marks a conversion by molar mass, not a printed value.
Tests used:
Type in all cases: functional
Details in all cases: Homo sapiens
[1] = tested on: HeLa; assay: Minimum inhibitory concentration against coxsackie virus B4 was determined
[2] = tested on: HeLa; assay: Minimum cytotoxicity concentration to HeLa cell line was determined
[3] = tested on: HeLa; assay: Minimum inhibitory concentration against respiratory syncytial virus was determined
[4] = tested on: HeLa; assay: Minimum inhibitory concentration against vesicular stomatitis virus was determined

SMILES | MIC50 [1] [µg/mL] | MCC [2] [µg/mL] | MIC50 [3] [µg/mL] | MIC50 [4] [µg/mL]
NC1=NC2C(N=CN2[C@H]2CCCC[C@H]2CO)C(Cl)=N1 (some centres undefined) | 120 (≈ 423 µM) | > 200 | 8 (≈ 28.2 µM) | > 200
OC[C@@H]1CCCC[C@@H]1N1C=NC2C(Cl)=NC=NC21 (some centres undefined) | > 80 | 400 | > 80 | –
NC1=NC=NC2C1N=CN2[C@H]1CCCC[C@H]1CO (some centres undefined) | > 80 | 400 | 3.2 (≈ 12.8 µM) | –
NC(=O)c1ncn([C@@H]2O[C@H](CO)[C@@H](O)[C@H]2O)n1 [RIBAVIRIN] | 48 (≈ 197 µM) | > 400 | 1.92 (≈ 7.86 µM) | 16 (≈ 65.5 µM)

Source: ChEMBL document CHEMBL1144367, “QSAR for anti-RNA-virus activity, synthesis, and assay of anti-RSV carbonucleosides given a unified representation of spectral moments, quadratic, and topologic indices” (2005)
